# Experiments:
# [1] = tested on: cultured cells of Taxus media; experiment: Taxus media cell culture with coronatine; assay type: cell-based; settings: concentration of coronatines 1 μM
# Protocol: (§1) One gram (fresh weight) of the cultured cells thus obtained was inoculated to an Erlenmeyer flask containing 20 ml of liquid Woody Plant Medium to which the above-mentioned component was added to give the same concentration, and shake culture was carried out at 25° C. for 14 days. On the 14th day after starting the culture, 50 μl of coronatine [formula (IV)] was added as coronatines to the culture medium to give the final concentration of 0.001-1000 μM and the culture was further carried out for another 7 days.
# (§2) After completing the culture, cultured cells of Taxus baccata LINN were harvested by filtration and lyophilized, then the dry weight was measured to obtain the yeild of the cultured cells per liter of the liquid medium.
# Example 7 was repeated except that cultured cells of Taxus media, which was obtained in the process analogous to that of said example were used and coronatine was added as coronatines to give the final concentration of 1 μM.
# [2] = tested on: cultured cells of Taxus baccata LINN; experiment: Taxus baccata cell culture with coronatines; assay type: cell-based
# Protocol: A part of stem of Taxus baccata LINN which had been previously sterilized with 2% antiformin solution or 70% ethanol solution or the like, was placed on solid Woody Plant Medium (containing gelan gum of 0.25% by weight) to which naphthalenacetic acid had been added to give the concentration of 10^−5 M, and static culture was carried out at 25 ° C. in a dark place to provide callus of Taxus baccata LINN. One gram (fresh weight) of the callus was inoculated to an Erlenmeyer flask containing 20 ml of liquid Woody Plant Medium to which the above-mentioned component was added to give the same concentration and shake culture was carried out with a rotary shaker (amplification of 25 mm, 120 rpm) and the callus was subcultured in every 21 days to accelerate the growth rate thereof.
# as §1, §2
# [3] = tested on: cultured cells of Taxus baccata LINN; experiment: Taxus baccata cell culture with cyclic polysaccharides and methyl ester of jasmonic acid; assay type: cell-based
# Protocol: […] After completing the culture, cultured cells of Taxus baccata LINN were harvested by filtration and lyophilized, then the dry weight was measured to obtain the yeild thereof per liter of the liquid medium.
# [4] = tested on: cultured cells of Taxus baccata LINN; experiment: Taxus baccata cell culture with cyclic polysaccharides; assay type: cell-based
# Protocol: A part of stem of Taxus baccata LINN which had been previously sterilized with 2% antiformin solution or 70% ethanol solution or the like, was placed on solid Woody Plant Medium (containing gelan gum of 0.25% by weight) to which naphthalenacetic acid had been added to give the concentration of 10^−5 M, and static culture was carried out at 25° C. in a dark place to provide callus of Taxus baccata LINN. 0.1 g (fresh weight) of the callus was inoculated to a well having an inner diameter of 18 mm, containing 1 ml of liquid Woody Plant Medium to which the above-mentioned component was added to give the same concentration and shake culture was carried out with a rotary shaker (amplification of 25 mm, 120 rpm) and the callus was subcultured in every 28 days to accelerate the growth rate thereof.
# One gram (fresh weight) of the cultured cells thus obtained was inoculated to an Erlenmeyer flask containing 20 ml of liquid Woody Plant Medium to which the above-mentioned component was added to give the same concentration, and shake culture was carried out at 25° C. for 14 days. […]
# After completing the culture, cultured cells of Taxus baccata LINN were harvested by filtration and lyophilized, then the dry weight was measured to obtain the yeild thereof per liter of the liquid medium.
# [5] = tested on: cultured cells of Taxus baccata LINN; experiment: Taxus baccata cell culture with fatty acids or natural oil; assay type: cell-based; settings: 14 days
# Protocol: One gram (fresh weight) of the callus was inoculated to an Erlenmeyer flask containing 20 ml of liquid Woody Plant Medium and shake culture was carried out with a rotary shaker (amplification of 25 mm, 100 rpm) and the callus was subcultured in every 21 days to accelerate the growth rate thereof.
# [6] = tested on: cultured cells of Taxus media; settings: α-linolenic acid, concentration not given, 14 days
# Protocol: Two grams (fresh weight) of the cultured cells thus obtained by liquid culture was inoculated to 20 ml of liquid Woody Plant Medium (contained in an Erlenmeyer flask of 100 ml) to which α-linolenic acid of 0.01-1000 μM (dissolved in ethanol) was added, and shake culture was carried out at 25° C. in a dark place with a rotary shaker (amplification of 25 mm, 100 rpm).
# After completing the culture for 14 days, cultured cells were harvested by filtration and lyophilized, then the dry weight was measured to obtain the yield thereof. Taxane-type diterpenes were extracted from the dried callus and the culture medium with methanol or the like, and they were determined by comparing with standard taxol using high performance liquid chromatography to measure the yield of taxol.
# [7] = concentration of coronatines 0.001 μM
# [8] = concentration of coronatines 0.01 μM
# [9] = concentration of coronatines 0.1 μM
# [10] = concentration of coronatines 1 μM
# [11] = concentration of coronatines 10 μM
# [12] = concentration of coronatines 100 μM
# [13] = concentration of coronatines 1000 μM
# [14] = β-cyclodextrin 0.01 mM + methyl ester of jasmonic acid 100 μM
# [15] = β-cyclodextrin 0.1 mM + methyl ester of jasmonic acid 100 μM
# [16] = β-cyclodextrin 1 mM + methyl ester of jasmonic acid 100 μM
# [17] = β-cyclodextrin 10 mM + methyl ester of jasmonic acid 100 μM
# [18] = concentration of β-cyclodextrin 0.01 mM
# [19] = concentration of β-cyclodextrin 0.1 mM
# [20] = concentration of β-cyclodextrin 1 mM
# [21] = concentration of β-cyclodextrin 10 mM
# [22] = 6-O-α-D-glucosyl-β-cyclodextrin 50 mM + methyl ester of jasmonic acid 100 μM
# [23] = 50 mM, 6-O-α-D-glucosyl-β-cyclodextrin was used
# [24] = concentration of α-linolenic acid 0.01 μM
# [25] = concentration of α-linolenic acid 0.1 μM
# [26] = concentration of α-linolenic acid 1 μM
# [27] = concentration of α-linolenic acid 10 μM
# [28] = concentration of α-linolenic acid 100 μM
# [29] = concentration of α-linolenic acid 500 μM
# [30] = concentration of α-linolenic acid 1000 μM
smiles,measurement,setting,value
"CCC1C=C(C(=O)NC2(C(=O)O)CC2CC)C2CCC(=O)C2C1 (centres unmarked) [Example 7, coronatine]",yield of baccatin III,[1],26.5 mg/L
same,yield of cephalomannine,[1],15.1 mg/L
same,yield of cultured cells,[1],18.6 g/L
same,yield of taxol,[1],65.2 mg/L
same,yield of baccatin III,[2]; [7],5.0 mg/L
same,yield of cephalomannine,[2]; [7],3.8 mg/L
same,yield of cultured cells,[2]; [7],20.1 g/L
same,yield of taxol,[2]; [7],9.6 mg/L
same,yield of baccatin III,[2]; [8],8.9 mg/L
same,yield of cephalomannine,[2]; [8],10.2 mg/L
same,yield of cultured cells,[2]; [8],20.2 g/L
same,yield of taxol,[2]; [8],15.2 mg/L
same,yield of baccatin III,[2]; [9],18.7 mg/L
same,yield of cephalomannine,[2]; [9],12.3 mg/L
same,yield of cultured cells,[2]; [9],18.6 g/L
same,yield of taxol,[2]; [9],30.1 mg/L
same,yield of baccatin III,[2]; [10],28.4 mg/L
same,yield of cephalomannine,[2]; [10],11.4 mg/L
same,yield of cultured cells,[2]; [10],18.4 g/L
same,yield of taxol,[2]; [10],60.0 mg/L
same,yield of baccatin III,[2]; [11],38.5 mg/L
same,yield of cephalomannine,[2]; [11],8.8 mg/L
same,yield of cultured cells,[2]; [11],17.8 g/L
same,yield of taxol,[2]; [11],49.4 mg/L
same,yield of baccatin III,[2]; [12],44.1 mg/L
same,yield of cephalomannine,[2]; [12],7.9 mg/L
same,yield of cultured cells,[2]; [12],17.5 g/L
same,yield of taxol,[2]; [12],58.0 mg/L
same,yield of baccatin III,[2]; [13],13.2 mg/L
same,yield of cephalomannine,[2]; [13],6.5 mg/L
same,yield of cultured cells,[2]; [13],15.0 g/L
same,yield of taxol,[2]; [13],23.1 mg/L
"OC[C@H]1O[C@@H]2O[C@H]3[C@H](O)[C@@H](O)[C@@H](O[C@H]4[C@H](O)[C@@H](O)[C@@H](O[C@H]5[C@H](O)[C@@H](O)[C@@H](O[C@H]6[C@H](O)[C@@H](O)[C@@H](O[C@H]7[C@H](O)[C@@H](O)[C@@H](O[C@H]8[C@H](O)[C@@H](O)[C@@H](O[C@H]1[C@H](O)[C@H]2O)O[C@@H]8CO)O[C@@H]7CO)O[C@@H]6CO)O[C@@H]5CO)O[C@@H]4CO)O[C@@H]3CO [Example 13, β-cyclodextrin]",yield of baccatin III,[3]; [14],54.6 mg/L
same,yield of cephalomannine,[3]; [14],8.0 mg/L
same,yield of cultured cells,[3]; [14],15.6 g/L
same,yield of taxol,[3]; [14],28.5 mg/L
same,yield of baccatin III,[3]; [15],62.6 mg/L
same,yield of cephalomannine,[3]; [15],9.6 mg/L
same,yield of cultured cells,[3]; [15],16.3 g/L
same,yield of taxol,[3]; [15],35.4 mg/L
same,yield of baccatin III,[3]; [16],76.0 mg/L
same,yield of cephalomannine,[3]; [16],10.1 mg/L
same,yield of cultured cells,[3]; [16],15.4 g/L
same,yield of taxol,[3]; [16],42.3 mg/L
same,yield of baccatin III,[3]; [17],54.2 mg/L
same,yield of cephalomannine,[3]; [17],12.5 mg/L
same,yield of cultured cells,[3]; [17],17.3 g/L
same,yield of taxol,[3]; [17],64.4 mg/L
same,yeild of cultured cells,[4]; [18],19.0 g/L
same,yield of baccatin III,[4]; [18],2.5 mg/L
same,yield of cephalomannine,[4]; [18],0.7 mg/L
same,yield of taxol,[4]; [18],4.0 mg/L
same,yeild of cultured cells,[4]; [19],19.1 g/L
same,yield of baccatin III,[4]; [19],3.0 mg/L
same,yield of cephalomannine,[4]; [19],2.6 mg/L
same,yield of taxol,[4]; [19],4.2 mg/L
same,yeild of cultured cells,[4]; [20],20.1 g/L
same,yield of baccatin III,[4]; [20],4.2 mg/L
same,yield of cephalomannine,[4]; [20],3.0 mg/L
same,yield of taxol,[4]; [20],6.5 mg/L
same,yeild of cultured cells,[4]; [21],20.1 g/L
same,yield of baccatin III,[4]; [21],5.0 mg/L
same,yield of cephalomannine,[4]; [21],2.2 mg/L
same,yield of taxol,[4]; [21],10.5 mg/L
"OC[C@H]1O[C@H](OC[C@H]2O[C@@H]3O[C@H]4[C@H](O)[C@@H](O)[C@@H](O[C@H]5[C@H](O)[C@@H](O)[C@@H](O[C@H]6[C@H](O)[C@@H](O)[C@@H](O[C@H]7[C@H](O)[C@@H](O)[C@@H](O[C@H]8[C@H](O)[C@@H](O)[C@@H](O[C@H]9[C@H](O)[C@@H](O)[C@@H](O[C@H]2[C@H](O)[C@H]3O)O[C@@H]9CO)O[C@@H]8CO)O[C@@H]7CO)O[C@@H]6CO)O[C@@H]5CO)O[C@@H]4CO)[C@H](O)[C@@H](O)[C@@H]1O [Example 17, 6-O-α-D-glucosyl-β-cyclodextrin]",yield of baccatin III,[3]; [22],53.0 mg/L
same,yield of cephalomannine,[3]; [22],11.1 mg/L
same,yield of cultured cells,[3]; [22],17.5 g/L
same,yield of taxol,[3]; [22],45.9 mg/L
same,yeild of cultured cells,[4]; [23],20.5 g/L
same,yield of baccatin III,[4]; [23],3.5 mg/L
same,yield of cephalomannine,[4]; [23],1.3 mg/L
same,yield of taxol,[4]; [23],8.2 mg/L
"CC/C=C\C/C=C\C/C=C\CCCCCCCC(=O)O [Example 26, α-linolenic acid]",yield of cells,[5]; [24],20 g/L
same,"yield of taxane-type diterpenes, baccatin III",[5]; [24],2 mg/L
same,"yield of taxane-type diterpenes, cephalomannine",[5]; [24],2 mg/L
same,"yield of taxane-type diterpenes, taxol",[5]; [24],5 mg/L
same,yield of cells,[5]; [25],20 g/L
same,"yield of taxane-type diterpenes, baccatin III",[5]; [25],2 mg/L
same,"yield of taxane-type diterpenes, cephalomannine",[5]; [25],2 mg/L
same,"yield of taxane-type diterpenes, taxol",[5]; [25],6 mg/L
same,yield of cells,[5]; [26],20 g/L
same,"yield of taxane-type diterpenes, baccatin III",[5]; [26],2 mg/L
same,"yield of taxane-type diterpenes, cephalomannine",[5]; [26],2 mg/L
same,"yield of taxane-type diterpenes, taxol",[5]; [26],6 mg/L
same,yield of cells,[5]; [27],20 g/L
same,"yield of taxane-type diterpenes, baccatin III",[5]; [27],3 mg/L
same,"yield of taxane-type diterpenes, cephalomannine",[5]; [27],4 mg/L
same,"yield of taxane-type diterpenes, taxol",[5]; [27],8 mg/L
same,yield of cells,[5]; [28],19 g/L
same,"yield of taxane-type diterpenes, baccatin III",[5]; [28],6 mg/L
same,"yield of taxane-type diterpenes, cephalomannine",[5]; [28],4 mg/L
same,"yield of taxane-type diterpenes, taxol",[5]; [28],19 mg/L
same,yield of cells,[5]; [29],14 g/L
same,"yield of taxane-type diterpenes, baccatin III",[5]; [29],4 mg/L
same,"yield of taxane-type diterpenes, cephalomannine",[5]; [29],3 mg/L
same,"yield of taxane-type diterpenes, taxol",[5]; [29],12 mg/L
same,yield of cells,[5]; [30],12 g/L
same,"yield of taxane-type diterpenes, baccatin III",[5]; [30],2 mg/L
same,"yield of taxane-type diterpenes, cephalomannine",[5]; [30],2 mg/L
same,"yield of taxane-type diterpenes, taxol",[5]; [30],7 mg/L
same,yield of cells,[6],20 g/L
same,"yield of taxane-type diterpenes, baccatin III",[6],10 mg/L
same,"yield of taxane-type diterpenes, cephalomannine",[6],2 mg/L
same,"yield of taxane-type diterpenes, taxol",[6],22 mg/L

# From patent US6465221B1, “Method of producing a taxane-type diterpene” (Mitsui Chemicals, Inc., priority 1994, dated 2002)
